Assay results taken from patent US9512425B2, “Inhibiting migration of cancer cells” (Cornell University, priority 2012, dated 2016).

Assays:
[1] = tested on: MDA cells; assay: Cell proliferation assay (EdU); type: cell-based, human; conditions: MDA cells transformed with miR-708 lentiviral expression system
Procedure: For cell proliferation assays, 1×10^6 MDA cells were cultured separately in suspension in non-adhesive 6-well dishes (Corning Inc) for 2 days. EdU ([…]) was administrated to culture medium for 30 min to label proliferating cells. Cells were harvested, washed once with PBS, and fixed with 4% paraformaldehyde for 15 min at room temperature. Fixed cells were permeabilized and stained for EdU incorporation and DNA contains with the Click-iT® EdU Cell Proliferation Assay kit (Invitrogen Inc) according to the standard protocol. Flow analyses of cell phases were performed using an LSRII coupled with Diva software (BD Bioscience).

[2] = tested on: CD44 3'-UTR; assay: 3'-UTR dual luciferase assay; type: cell-based; conditions: 293T cells, Renilla/Firefly ratio
Procedure: (§1) The 3′-UTR of a gene of interest was amplified by PCR and cloned into a pmirGLO Dual-Luciferase miRNA Target Expression Vector (Promega). To express miRNA, synthetic premiRNA precursor for miR-708 and control scrambled miRNA were purchased from Applied Biosystems (Ambion). The miRNA precursor and pmirGLO Dual-Luciferase 3′-UTR vector were co-transfected into […] cells using the siPORT NeoFX Transfection Agent following manufacturer's instructions (Ambion). Cells were harvested and lysed at 48 hr post-transfection. The interaction between miR-708 and target 3′-UTR was measured by Dual-luciferase assay system (Promega).

[3] = tested on: Gon4l 3'-UTR; assay: 3'-UTR dual luciferase assay; type: cell-based; conditions: 293T cells, Renilla/Firefly ratio
Procedure: as §1

[4] = tested on: Ntrk2 3'-UTR; assay: 3'-UTR dual luciferase assay; type: cell-based; conditions: 293T cells, Renilla/Firefly ratio
Procedure: as §1

[5] = tested on: Akt2; assay: Akt2 suppression in breast cancer cells (data not shown); type: cell-based
[6] = tested on: intracellular Ca^2+; assay: Intracellular calcium measurements (Fura-2, ATP stimulation); type: cell-based, human
Procedure: MDA-control, MDA-miR-708, and MDA-miR-708-Nnat-mut cells were grown on coverslips and used 2-3 days after plating. Cells were loaded with […] Fura-2 (Molecular Probes), a membrane-permeable Ca^2+-indicator dye, at 37° C. for 30 min. Cells were then washed and incubated in HEPES-buffered Na^+-Ringer's solution (140 mM NaCl, 5 mM KCl, 10 mM HEPES, 2 mM CaCl2, and 1 mM MgCl2, pH 7.4). Individual vials (50 mg) of the acetoxymethyl derivative of Fura-2 (Invitrogen/Molecular Probes) were stored dry at 0° C. and reconstituted in dimethyl sulfoxide at a concentration of 10 mM for each experiment. At the concentrations used, dimethyl sulfoxide had no effect on any preparation in these studies. The coverslip with the dye-loaded cells was attached to the bottom of a flow-through superfusion chamber and mounted on the stage of an inverted epifluorescence microscope (Nikon Eclipse TE-2000). The cells in the chamber were superfused and maintained at 37° C. as previously described (O'Connor and Silver, 2007). Cells were first visualized under transmitted light with a Nikon CF Fluor oil immersion objective (X40/1.3 numerical aperture) before the start of the fluorescence measurements. Images were obtained at 340 nm and 380 nm excitation and at 510 nm emission wavelengths. The ratio was determined from the images at 340 nm and 380 nm. The imaging workstation was controlled with the MetaFluor software package (Universal Imaging). Cells in the experimental field of view were analyzed singularly and independently from their neighbors. Results are expressed as means±SEM, where n refers to the total number of individually analyzed cells.
The inventors hypothesized that miR-708-mediated targeting of Nnat may lead to impaired regulation of intracellular Ca^2+. This would explain the inhibitory effect on the migratory phenotype of metastatic tumor cells observed earlier (see, e.g., FIG. 1E). To test this hypothesis, MDA and MDA-miR-708 cells were loaded with the intracellular calcium indicator, Fura-2, and the 340/380 ratios were monitored in the absence and presence of exogenous ATP. ATP binds ATP receptors on the cell surface, resulting in the cleavage of PIP2 into IP3 and DAG. IP3 binds IP3 receptors on the endoplasmic reticulum membrane, and releases ionized calcium from the endoplasmic reticulum (Vandewalle et al., 1994), (Berridge et al., 2003; Swanson et al., 1998). Thus, ATP-stimulated calcium release from endoplasmic reticulum was used to evaluate the consequence of Nnat suppression by miR-708.

With “miR-708: microRNA, mature sequence 5'-AAGGAGCUUACAAUCUAGCUGGG-3' (SEQ ID NO: 2); expressed from lentiviral vector or used as synthetic precursor” the cell proliferation [1] was “No significant change”, the “repression of 3'-UTR luciferase reporter” value [2] was “significant repression” and the “repression of 3'-UTR luciferase reporter” value [3] was “significant repression”. The “repression of 3'-UTR luciferase reporter” value [4] was “significant repression”, the Akt2 suppression [5] was “not suppressed” and the “regulation of intracellular Ca^2+ after ATP” value ([6]; MDA cells expressing miR-708 vs MDA) was “attenuated regulation”. The “slope, initial rate of calcium regulation back to baseline (representative trace)” value ([6]; MDA-miR-708 cells stimulated with ATP, control slope 0.72) was 0.3 ratio/min, the “pre-ATP stimulation (basal) ratio” value ([6]; MDA-miR-708 cells, mean±SEM) was 0.97±0.01 and the “peak calcium response due to ATP stimulation (340/380 ratio)” value ([6]; MDA-miR-708 cells, mean±SEM, n=107) was 1.77±0.06. For the same substance, the “initial rate of calcium regulation back to baseline” value ([6]; MDA-miR-708 cells, n=105, control 0.52±0.03) was 0.33±0.02.
